11 compounds from patent publication EP4603105A1, “PHARMACEUTICAL COMPOSITION CONTAINING CYCLIC COMPOUND HAVING SELECTIVE KRAS INHIBITORY EFFECT AGAINST HRAS AND NRAS” (CHUGAI SEIYAKU KABUSHIKI KAISHA, priority 2022, dated 2024) can be followed below.

For test [1], the target named is GDP-bound KRAS wild-type protein (Homo sapiens, UniProt P01116). The test can be described thus: Binding to KRAS by surface plasmon resonance (SPR), dissociation constant KD. As to conditions: Single Cycle Kinetics, 1:1 binding model. In outline:
(§1)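 SPR, 30°C: Avi-biotin RAS·GDP captured via Biotin CAPture (~100–300 RU); running buffer HBS pH 7.4, 1 mM DTT, 10 mM MgCl2, 0.01% Tween 20, 10 µM GDP, 4% DMSO. Single-cycle kinetics, 100 µL/min, 75 s injections; 1:1 model → KD.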

The target of test [2] is GDP-bound NRAS wild-type protein (Homo sapiens, UniProt P01111). Put plainly: Binding to NRAS by surface plasmon resonance (SPR), KD and KD ratio to KRAS. In outline: as §1
Sequence of GDP-bound NRAS wild-type protein (P01111 whole entry): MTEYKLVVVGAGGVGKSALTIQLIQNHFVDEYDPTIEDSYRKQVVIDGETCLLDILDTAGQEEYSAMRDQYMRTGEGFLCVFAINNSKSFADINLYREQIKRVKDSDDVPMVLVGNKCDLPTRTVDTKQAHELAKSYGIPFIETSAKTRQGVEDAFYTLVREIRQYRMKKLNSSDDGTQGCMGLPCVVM
Test [3] has as its target HRAS wild-type protein (Homo sapiens, UniProt P01112). Put plainly: Binding to HRAS by surface plasmon resonance (SPR), KD and KD ratio to KRAS. In outline: as §1
For test [4], the system named is human lung cancer strain NCI-H441. In kind it is cell-based. The procedure, abridged: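 Proliferation was scored by […] measured after the reagent was added to cultures kept at 37°C in 5% carbon dioxide.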
Setting [5] is: ratio of KD with respect to GDP-bound NRAS wild-type protein to KD with respect to KRAS.
Setting [6] is: ratio of KD with respect to HRAS wild-type protein to KD with respect to KRAS.
The mark [7] stands for this setting: ratio of KD value for GDP-bound NRAS wild-type protein to KD value for KRAS (SPR).
The mark [8] stands for this setting: ratio of KD value for HRAS wild-type protein to KD value for KRAS (SPR).

Sequence of HRAS wild-type protein (P01112 whole entry): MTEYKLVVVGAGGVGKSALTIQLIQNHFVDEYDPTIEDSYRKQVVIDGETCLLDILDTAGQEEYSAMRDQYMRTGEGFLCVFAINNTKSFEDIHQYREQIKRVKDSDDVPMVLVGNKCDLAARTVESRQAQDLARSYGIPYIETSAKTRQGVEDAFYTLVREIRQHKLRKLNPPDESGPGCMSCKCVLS
Sequence of GDP-bound KRAS wild-type protein (P01116 1-188 isoform P01116-2): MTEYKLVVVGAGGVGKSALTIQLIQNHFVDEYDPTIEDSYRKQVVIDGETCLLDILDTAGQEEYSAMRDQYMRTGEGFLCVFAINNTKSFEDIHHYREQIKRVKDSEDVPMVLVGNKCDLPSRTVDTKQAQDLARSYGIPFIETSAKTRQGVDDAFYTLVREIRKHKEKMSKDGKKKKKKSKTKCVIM

One may read the Kd as a measure of binding affinity in units of concentration. Lower therefore signals a tighter complex. One may read the IC50 as the point on the concentration scale where inhibition reaches its midpoint. Read a high IC50 as weaker potency. With `CC[C@H](C)[C@@H]1NC(=O)[C@H](CC(C)C)N(C)C(=O)C[C@@H](C(=O)N2C[C@@H](C)O[C@@H](C)C2)N(C)C(=O)[C@H](C2CCCC2)N(C)C(=O)C2(CCCC2)NC(=O)[C@@H]2CCCN2C(=O)[C@H](CCc2ccc(C(F)(F)F)c(Cl)c2)NC(=O)CN(C)C(=O)[C@H](Cc2ccc(F)cc2)N2CCCCC[C@@H](C2=O)N(C)C(=O)CN(C)C1=O` [PP1151], binding in test [1] was put at a Kd of 0.64 nM. Further, in test [2] (setting [5]), the “NRAS /KRAS” value was “B (a compound having 3 or more and less than 10 is denoted as B)”. The “HRAS /KRAS” value in test [3] (setting [6]) was “B (a compound having 3 or more and less than 10 is denoted as B)”. This compound showed an IC50 in test [4] of 97.1 nM.
In test [1], `CCO[C@@H]1C[C@H]2C(=O)NC3(CCC3)C(=O)N(C)[C@@H](C3CCCC3)C(=O)N(C)[C@H](C(=O)N(CC)CC)CC(=O)N(C)[C@@H](CC(F)F)C(=O)N[C@@H]([C@@H](C)CC)C(=O)N(C)CC(=O)N(C)[C@H]3C/C=C\CCN(C3=O)[C@@H](Cc3ccc(C(F)(F)F)cc3)C(=O)N(C)CC(=O)N[C@@H](CCc3cc(F)c(C(F)(F)F)c(F)c3)C(=O)N2C1` [PP1309] gave a Kd of 0.16 nM. For the same compound, the “NRAS /KRAS” value in test [2] (setting [5]) is “A (a compound having 10 or more and less than 20 is denoted as A)”. The “HRAS /KRAS” value in test [3] (setting [6]) was “A (a compound having 10 or more and less than 20 is denoted as A)”. The IC50 in test [4] turned out to be 5.3 nM.
As to `CCO[C@@H]1C[C@H]2C(=O)NC3(CCC3)C(=O)N(C)[C@@H](C3CCCC3)C(=O)N(C)[C@H](C)CC(=O)N(C)[C@@H](CC3CC3)C(=O)N[C@@H]([C@@H](C)CC)C(=O)N(C)CC(=O)N(C)[C@H]3C/C=C\CCN(C3=O)[C@@H](Cc3ccc(F)cc3C)C(=O)N(C)CC(=O)N[C@@H](CCc3cc(F)c(C(F)(F)F)c(F)c3)C(=O)N2C1` [PP1489], binding in test [1] was put at a Kd of 2.6 nM. The “NRAS /KRAS” value in test [2] (setting [7]) is “B (a compound having 3 or more and less than 10 is denoted as B)”. Further, the “HRAS /KRAS” value in test [3] (setting [8]) is “B (a compound having 3 or more and less than 10 is denoted as B)”. Moreover, the IC50 in test [4] came out at 118 nM.
With `CCO[C@@H]1C[C@H]2C(=O)NC3(CCC3)C(=O)N(C)[C@@H](C3CCCC3)C(=O)N(C)[C@H](C)CC(=O)N(C)[C@@H](CC3CCCC3)C(=O)N[C@@H]([C@@H](C)CC)C(=O)N(C)CC(=O)N(C)[C@H]3C/C=C\CCN(C3=O)[C@@H](Cc3ccc(F)cc3)C(=O)N(C)CC(=O)N[C@@H](CCc3cc(F)c(C(F)(F)F)c(F)c3)C(=O)N2C1` [PP1492], the Kd in test [1] was 0.94 nM. Also, in test [2] (setting [7]), the “NRAS /KRAS” value is “B (a compound having 3 or more and less than 10 is denoted as B)”. Moreover, the “HRAS /KRAS” value in test [3] (setting [8]) is “B (a compound having 3 or more and less than 10 is denoted as B)”. This compound also had an IC50 in test [4] of 129 nM.
For the compound `CCO[C@@H]1C[C@H]2C(=O)NC3(CCC3)C(=O)N(C)[C@@H](C3CCCC3)C(=O)N(C)[C@H](C)CC(=O)N(C)[C@@H](CC(C)C)C(=O)N[C@@H]([C@@H](C)CC)C(=O)N(C)CC(=O)N(C)[C@H]3C/C=C\CCN(C3=O)[C@@H](Cc3ccc(F)cc3C)C(=O)N(C)CC(=O)N[C@@H](CCc3cc(F)c(C(F)(F)F)c(F)c3)C(=O)N2C1` [PP1493], the Kd in test [1] is 2.3 nM. The “NRAS /KRAS” value in test [2] (setting [7]) was “B (a compound having 3 or more and less than 10 is denoted as B)”. Besides, the “HRAS /KRAS” value in test [3] (setting [8]) was “B (a compound having 3 or more and less than 10 is denoted as B)”. In test [4], the IC50 came out at 135 nM.
In test [1], `CCO[C@@H]1C[C@H]2C(=O)NC3(CCC3)C(=O)N(C)[C@@H](C3CCCC3)C(=O)N(C)[C@H](C)CC(=O)N(C)[C@@H](CC(C)C)C(=O)N[C@@H]([C@@H](C)CC)C(=O)N(C)CC(=O)N(C)[C@H]3C/C=C\CCN(C3=O)[C@@H](Cc3ccc(F)cc3)C(=O)N(C)CC(=O)N[C@@H](CCc3cc(F)c(C(F)(F)F)c(F)c3)C(=O)N2C1` [PP1494] gave a Kd of 0.58 nM. Further, the “NRAS /KRAS” value in test [2] (setting [7]) was “B (a compound having 3 or more and less than 10 is denoted as B)”. Also, the “HRAS /KRAS” value in test [3] (setting [8]) was “B (a compound having 3 or more and less than 10 is denoted as B)”. In test [4], this compound yielded an IC50 of 142 nM.
In the case of `CCO[C@@H]1C[C@H]2C(=O)NC3(CCC3)C(=O)N(C)[C@@H](C3CCCC3)C(=O)N(C)[C@H](C(=O)N3CCOCC3)CC(=O)N(C)[C@@H](CC3CC3)C(=O)N[C@@H]([C@@H](C)CC)C(=O)N(C)CC(=O)N(C)[C@H]3C/C=C\CCN(C3=O)[C@@H](Cc3ccc(F)cc3C)C(=O)N(C)CC(=O)N[C@@H](CCc3cc(F)c(C(F)(F)F)c(F)c3)C(=O)N2C1` [PP1495], the affinity in test [1], expressed as Kd, was 0.55 nM. The “NRAS /KRAS” value in test [2] (setting [7]) was “A (a compound having 10 or more and less than 20 is denoted as A)”. In test [3] (setting [8]), the “HRAS /KRAS” value is “B (a compound having 3 or more and less than 10 is denoted as B)”. In test [4], this compound came in with a concentration for half-maximal inhibition (IC50) of 98.7 nM.
`CC[C@H](C)[C@@H]1NC(=O)[C@H](CC2CCCC2)N(C)C(=O)C[C@@H](C(=O)N(C)C)N(C)C(=O)[C@H](C2CCCC2)N(C)C(=O)C2(CCC2)NC(=O)[C@@H]2C[C@@H](C(F)(F)F)CN2C(=O)[C@H](CCc2cc(F)c(C(F)(F)F)c(F)c2)NC(=O)CN(C)C(=O)[C@H](Cc2ccc(F)cc2)N2CC/C=C\C[C@@H](C2=O)N(C)C(=O)CN(C)C1=O` [PP1508] showed a Kd in test [1] of 0.15 nM. The “NRAS /KRAS” value in test [2] (setting [7]) is “A (a compound having 10 or more and less than 20 is denoted as A)”. Also, in test [3] (setting [8]), the “HRAS /KRAS” value is “A (a compound having 10 or more and less than 20 is denoted as A)”. The IC50 in test [4] turned out to be 28.1 nM.
For `CC[C@H](C)[C@@H]1NC(=O)[C@H](CC2CC2)N(C)C(=O)C[C@@H](C(=O)N2CCCC2)N(C)C(=O)[C@H](C2CCCC2)N(C)C(=O)C2(CCCC2)NC(=O)[C@@H]2C[C@@H](C(F)(F)F)CN2C(=O)[C@H](CCc2cc(F)c(C(F)(F)F)c(F)c2)NC(=O)CN(C)C(=O)[C@H](Cc2ccc(F)cc2)N2CC/C=C\C[C@@H](C2=O)N(C)C(=O)CN(C)C1=O` [PP1509], binding in test [1] was characterised by a dissociation constant (Kd) of 0.4 nM. For the same compound, the “NRAS /KRAS” value in test [2] (setting [7]) is “A (a compound having 10 or more and less than 20 is denoted as A)”. For the same compound, the “HRAS /KRAS” value in test [3] (setting [8]) was “A (a compound having 10 or more and less than 20 is denoted as A)”. Half-maximal inhibition in test [4] (IC50) was put at 67.9 nM.
Compound `CCO[C@@H]1C[C@H]2C(=O)NC3(CCC3)C(=O)N(C)[C@@H](C(CC)CC)C(=O)N(C)[C@H](C(=O)N(C)C)CC(=O)N(C)[C@@H](CC3CC3)C(=O)N[C@@H]([C@@H](C)CC)C(=O)N(C)CC(=O)N(C)[C@H]3C/C=C\CCN(C3=O)[C@@H](Cc3ccc(F)cc3C)C(=O)N(C)CC(=O)N[C@@H](CCc3cc(F)c(C(F)(F)F)c(F)c3)C(=O)N2C1` [PP1514] returned a Kd in test [1] of 0.65 nM. Moreover, the “NRAS /KRAS” value in test [2] (setting [7]) was “A (a compound having 10 or more and less than 20 is denoted as A)”. For the same compound, the “HRAS /KRAS” value in test [3] (setting [8]) was “A (a compound having 10 or more and less than 20 is denoted as A)”. In test [4], this compound displayed an IC50 of 72.7 nM.
`CCO[C@@H]1C[C@H]2C(=O)NC3(CCC3)C(=O)N(C)[C@@H](C(CC)CC)C(=O)N(C)[C@H](C)CC(=O)N(C)[C@@H](CC3CC3)C(=O)N[C@@H]([C@@H](C)CC)C(=O)N(C)CC(=O)N(C)[C@H]3C/C=C\CCN(C3=O)[C@@H](Cc3ccc(F)cc3C)C(=O)N(C)CC(=O)N[C@@H](CCc3cc(F)c(C(F)(F)F)c(F)c3)C(=O)N2C1` [PP1520] gave a Kd in test [1] of 6.6 nM. Moreover, the “NRAS /KRAS” value in test [2] (setting [7]) was “A (a compound having 10 or more and less than 20 is denoted as A)”. In test [3] (setting [8]), the “HRAS /KRAS” value was “A (a compound having 10 or more and less than 20 is denoted as A)”. Besides, in test [4], half-maximal inhibition (IC50) required 575 nM.
